Key:
TMD8 (ABC-DLBCL) = assay: Combination efficacy in tumor xenograft model of TMD8 (Example 5); conditions: ADC 2 mg/kg iv once; GA101 1 mg/kg ip qwx3; lenalidomide 20 mg/kg po (qdx5)x3
Experimental: When the xenograft tumors reached desired volume, animals were randomized and received treatments (Day 0 of the study). There were seven treatment groups (1) vehicle, (2) GA101, (3) anti-CD79b-MC-vc-PAB-MMAE, (4) lenalidomide, (5) GA101+anti-CD79b-MC-vc-PAB-MMAE, (6) GA101+lenalidomide, and (7) GA101+lenalidomide+anti-CD79b-MC-vc-PAB-MMAE. CD79b-MC-vc-PAB-MMAE ADC was dosed once intravenously at 2 mg/kg, iv, once. GA101 dosed 1 mg/kg, ip, qwx3. Lenalidomide was administered at 20 mg/kg, po, (qdx5)×3.
As described above, tumors were measured 1-2 times a week throughout the study using UltraCal-IV calipers and tumor volume was calculated using following formula: tumor volume (mm^3)=0.5a×b^2, wherein a and b are the long and short diameters of the tumor, respectively.

non-ABC-DLBCL cells = conditions: Br J Haematol 2013 Zhang et al.; cited from earlier work
[1] = system: activated B-cell-like (ABC) subtype; conditions: Br J Haematol 2013 Zhang et al.; cited from earlier work
[2] = system: Granta-519 human mantle-cell lymphoma; assay: Combination efficacy in tumor xenograft model of Granta-519 (Example 3); type: in vivo; conditions: ADC 1 mg/kg iv once; ABT-199 100 mg/kg orally once a day for 21 days
Text: To appropriately analyze the repeated measurement of tumor volumes from the same animals over time, a mixed modeling approach was used (Pinheiro J, et al. nlme: linear and nonlinear mixed effects models. 2009; R package, version 3.1-96). This approach addresses both repeated measurements and modest dropout rates due to non-treatment related removal of animals before the study end. Cubic regression splines were used to fit a non-linear profile to the time courses of log2 tumor volume at each dose level. These non-linear profiles were then related to dose within the mixed model. The results were plotted as fitted tumor volume of each group over time.

WSU-DLCL2 (DLBCL) = assay: Combination efficacy in tumor xenograft model of WSU-DLCL2 (Example 6); type: in vivo, C.B-17 SCID mice; conditions: ADC 2 mg/kg iv once; GA101 30 mg/kg ip once; GDC-199 100 mg/kg po qdx21; GDC-032 10 mg/kg po qdx21; rituximab 30 mg/kg ip once
Experimental: GA101 dosed 30 mg/kg, ip, once. Bcl2 inhibitor, GDC-199, was dosed at 100 mg/kg, po, qdx21. PI3K inhibitor, GDC-032 was dosed at 10 mg/kg, po, qdx21.

## Nc1cccc2c1CN(C1CCC(=O)NC1=O)C2=O (racemic) [lenalidomide, (RS)-3-(4-Amino-1-oxo 1,3-dihydro-2H-isoindol-2-yl)piperidine-2,6-dione]
TMD8 (ABC-DLBCL)
  anti-tumor efficacy (tumor volume, FIG. 3B): little efficacy
non-ABC-DLBCL cells
  effect on non-ABC-DLBCL cells: minimal effect
[1]
  growth suppression of ABC subtype: preferentially suppresses the growth

## CC1(C)CCC(CN2CCN(c3ccc(C(=O)NS(=O)(=O)c4ccc(NCC5CCOCC5)c([N+](=O)[O-])c4)c(Oc4cnc5[nH]ccc5c4)c3)CC2)=C(c2ccc(Cl)cc2)C1 [ABT-199, 4-(4-{[2-(4-chlorophenyl)-4,4-dimethylcyclohex-1-en-1-yl]methyl}piperazin-1-yl)-N-({3-nitro-4-[(tetrahydro-2H-pyran-4-ylmethyl)amino]phenyl}sulfonyl)-2-(1H-pyrrolo[2,3-b]pyridin-5-yloxy)benzamide]
[2]
  anti-tumor activity (fitted tumor volume over time, FIG. 2): did not result in anti-tumor activity
WSU-DLCL2 (DLBCL)
  effect on tumor growth (tumor volume, FIG. 4): little effect on the tumor growth

## Cc1nc(-c2cn3c(n2)-c2ccc(-c4cnn(C(C)(C)C(N)=O)c4)cc2OCC3)n(C(C)C)n1 [GDC-0032]
WSU-DLCL2 (DLBCL)
  effect on tumor growth (tumor volume, FIG. 4): little effect on the tumor growth

## GA101: anti-CD20 antibody; obinutuzumab is synonymous for GA101 or RO5072759; humanized B-Ly1 type II antibody
WSU-DLCL2 (DLBCL)
  effect on tumor growth (tumor volume, FIG. 4): little effect on the tumor growth
